Assays:
[1] = AUC (0 to infinity) in Sprague-Dawley rat at 20 mg/kg, ip measured upto 1440 mins by LC-MS/MS analysis; assay type: ADME, organism-based; conditions: in vivo
[2] = Toxicity in BALB/c nude mouse xenografted with human LNCaP cells assessed as reduction in body weight at 30 mg/kg, ip measured every 2 days for 28 days; assay type: organism-based; conditions: in vivo, 672 h, time 28 day
[3] = Toxicity in BALB/c mouse assessed as effect on serum ALT level at 30 mg/kg, ip measured after 3 days by biochemical analysis; assay type: organism-based; conditions: in vivo, 72 h, time 3 day
[4] = Volume of distribution at steady state in Sprague-Dawley rat at 20 mg/kg, po measured upto 1440 mins by LC-MS/MS analysis; assay type: ADME, organism-based; conditions: in vivo, 24 h
[5] = Half life in Sprague-Dawley rat at 20 mg/kg, po measured upto 1440 mins by LC-MS/MS analysis; assay type: ADME, organism-based; conditions: in vivo
[6] = Bioavailability in Sprague-Dawley rat at 20 mg/kg, ip measured upto 1440 mins by LC-MS/MS analysis; assay type: ADME, organism-based; conditions: in vivo
[7] = Volume of distribution at steady state in Sprague-Dawley rat at 5 mg/kg, iv measured upto 1440 mins by LC-MS/MS analysis; assay type: ADME, organism-based; conditions: in vivo, read-out: Vdss
[8] = Volume of distribution at steady state in Sprague-Dawley rat at 20 mg/kg, ip measured upto 1440 mins by LC-MS/MS analysis; assay type: ADME, organism-based; conditions: in vivo, 24 h
[9] = Toxicity in BALB/c mouse assessed as appearance of lesions in heart at 30 mg/kg, ip measured after 3 days by H and E staining based analysis; assay type: organism-based; conditions: in vivo, 72 h, time 3 day
[10] = Clearance in Sprague-Dawley rat at 20 mg/kg, po measured upto 1440 mins by LC-MS/MS analysis; assay type: ADME, organism-based; conditions: in vivo, 24 h
[11] = Toxicity in BALB/c mouse assessed as effect on serum AST level at 30 mg/kg, ip measured after 3 days by biochemical analysis; assay type: organism-based; conditions: in vivo, 72 h, time 3 day
[12] = Toxicity in BALB/c mouse assessed as appearance of lesions in kidney at 30 mg/kg, ip measured after 3 days by H and E staining based analysis; assay type: organism-based; conditions: in vivo, 72 h, time 3 day
[13] = Clearance in Sprague-Dawley rat at 5 mg/kg, iv measured upto 1440 mins by LC-MS/MS analysis; assay type: ADME, organism-based; conditions: in vivo
[14] = AUC (0 to infinity) in Sprague-Dawley rat at 5 mg/kg, iv measured upto 1440 mins by LC-MS/MS analysis; assay type: ADME, organism-based; conditions: in vivo
[15] = Toxicity in BALB/c mouse assessed as appearance of lesions in liver at 30 mg/kg, ip measured after 3 days by H and E staining based analysis; assay type: organism-based; conditions: in vivo, 72 h, time 3 day
[16] = Toxicity in BALB/c mouse assessed as effect on serum uric acid level at 30 mg/kg, ip measured after 3 days by biochemical analysis; assay type: organism-based; conditions: in vivo, 72 h, time 3 day
[17] = Toxicity in BALB/c nude mouse xenografted with human 22Rv1 cells assessed as reduction in body weight at 30 mg/kg, ip measured every 2 days for 28 days; assay type: organism-based, CWR22R; conditions: in vivo, 672 h, time 28 day
[18] = Toxicity in BALB/c mouse assessed as effect on BUN level at 30 mg/kg, ip measured after 3 days by biochemical analysis; assay type: organism-based; conditions: in vivo, 72 h, time 3 day
[19] = Toxicity in BALB/c mouse assessed as appearance of lesions in spleen at 30 mg/kg, ip measured after 3 days by H and E staining based analysis; assay type: organism-based; conditions: in vivo, 72 h, time 3 day
[20] = Toxicity in BALB/c mouse assessed as appearance of lesions in lung at 30 mg/kg, ip measured after 3 days by H and E staining based analysis; assay type: organism-based; conditions: in vivo, 72 h, time 3 day
[21] = AUC (0 to infinity) in Sprague-Dawley rat at 20 mg/kg, po measured upto 1440 mins by LC-MS/MS analysis; assay type: ADME, organism-based; conditions: in vivo, 24 h
[22] = Half life in Sprague-Dawley rat at 5 mg/kg, iv measured upto 1440 mins by LC-MS/MS analysis; assay type: ADME, organism-based; conditions: in vivo
[23] = Oral bioavailability in Sprague-Dawley rat at 20 mg/kg measured upto 1440 mins by LC-MS/MS analysis; assay type: ADME, organism-based; conditions: in vivo
[24] = Clearance in Sprague-Dawley rat at 20 mg/kg, ip measured upto 1440 mins by LC-MS/MS analysis; assay type: ADME, organism-based; conditions: in vivo
[25] = Toxicity in BALB/c mouse assessed as effect on creatinine level at 30 mg/kg, ip measured after 3 days by biochemical analysis; assay type: organism-based; conditions: in vivo, 72 h, time 3 day
[26] = Cmax in Sprague-Dawley rat at 20 mg/kg, po measured upto 1440 mins by LC-MS/MS analysis; assay type: ADME, organism-based; conditions: in vivo
CWR22R = assay: Antitumor activity against human 22Rv1 cells xenografted in BALB/c nude mouse assessed as tumor growth inhibition at 30 mg/kg, ip measured every 2 days for 28 days relative to control; conditions: 22Rv1, 672 h, read-out: TGI
DU-145 = assay: cells; conditions: Homo sapiens, DU-145, 72 h
Description: Cytotoxicity against androgen receptor independent human DU-145 cells assessed as inhibition of cell growth incubated for 72 hrs by MTT assay

LNCaP [27] = assay: cells; conditions: Homo sapiens, 72 h
Description: Cytotoxicity against androgen receptor dependent human LNCaP cells assessed as inhibition of cell growth incubated for 72 hrs by MTT assay

LNCaP [28] = assay: Antitumor activity against human LNCaP cells xenografted in BALB/c nude mouse assessed as tumor growth inhibition at 30 mg/kg, ip measured every 2 days for 28 days relative to control; conditions: 672 h, read-out: TGI

In the case of `N#Cc1ccc(N2C(=O)CN(CCCN3CCCc4ccccc43)C2=S)cc1C(F)(F)F`, the AUC(0-inf) [1] is reported as 9160 ng·h/mL, the Activity [2] is reported as “Non-Toxic” and the Activity [3] is reported as “Non-Toxic”. For the same compound, the Vdss [4] was 16.72 L/kg, the half-life [5] was 3.06 h and the bioavailability [6] was 67.2%. The Vd [7] was 6.9 L/kg, the Vdss [8] was 8.77 L/kg and the Activity [9] was “Non-Toxic”. The CL [10] was 84.8 mL/min/kg, the Activity [11] was “Non-Toxic” and the Activity [12] was “Non-Toxic”. The clearance [13] was 15.7 mL/min/kg, the AUC(0-inf) [14] was 3500 ng·h/mL and the Activity [15] was “Non-Toxic”. For the same compound, the Activity [16] was “Non-Toxic”, the Activity [17] was “Non-Toxic” and the Activity [18] was “Non-Toxic”. The Activity [19] was “Non-Toxic”, the Activity [20] was “Non-Toxic” and the AUC [21] was 805.18 ng·h/mL. For the same compound, the half-life [22] was 5.02 h, the bioavailability [23] was 5.74% and the CL/F [24] was 60.2 mL/min/kg. The Activity [25] was “Non-Toxic” and the Cmax [26] was 92.1 ng/mL.

`CNC(=O)c1ccc(N2C(=S)N(c3ccc(C#N)c(C(F)(F)F)c3)C(=O)C2(C)C)cc1F` [ENZALUTAMIDE] showed an inhibition in vivo at 30 mg/kg (CWR22R) of 39.9%, an IC50 (DU-145) greater than 50 µM and an IC50 (LNCaP [27]) of 13.9 µM. The inhibition in vivo at 30 mg/kg (LNCaP [28]) was 41.5%.
